The test has as its system smooth muscle cells obtained from the aortas of pigs. The test is described as follows: inhibition of the proliferation of smooth muscle cells (3H-thymidine incorporation). Conditions: Sus scrofa; porcine aortic smooth muscle cells; half-maximal inhibition of the thymidine incorporation produced by 10% FCS; 3H-thymidine added after 16-20 h, further 4 h. Type of test: cell-based, pig. As to the method: Investigation of the inhibition of the proliferation of smooth muscle cells by the compounds according to the invention
To determine the antiproliferative action of the compounds, smooth muscle cells are used which are obtained from the aortas of pigs by the media explant technique [R. Ross, J. Cell. Biol. 50, 172, 1971]. The cells are inoculated into suitable culture dishes, as a rule 96-hole plates, and cultured at 37° C. in 5% CO2 for 2-3 days in medium 199 containing 7.5% FCS and 7.5% NCS, 2 mM L-glutamine and 15 mM HEPES, pH 7.4. The cells are then synchronized by serum withdrawal for 2-3 days and then stimulated to growth using serum or other factors. Test compounds are added simultaneously. After 16-20 hours, ^3 H-thymidine is added and after a further 4 hours the incorporation of this substance into the TCA-precipitable DNA of the cells is determined. To determine the IC50 values, the active compound concentration is calculated which, on sequential dilution of the active compound, causes half-maximal inhibition of the thymidine incorporation produced by 10% FCS.

Structures are written as SMILES.

Regarding `NC(=O)C(NC(=O)C1CCCCC1c1ccc(Cn2c(C3CC3)nc3ccccc32)cc1)c1ccccc1` (stereo not shown) [Example 16], 0.28 nM corresponded to half-maximal inhibition (IC50).

One may read the IC50 as the point on the concentration scale where inhibition reaches its midpoint. Low readings indicate greater potency in that assay, high ones weaker potency in that assay.

Source of the values: patent publication US5935983A, “Use of phenylcyclohexylcarboxamides” (Bayer Aktiengesellschaft, priority 1995, dated 1999).
